Source: ChEMBL document CHEMBL1201862, “PubChem BioAssay data set” (2004)
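Five concentrations, 48 hours, 96-well plates. GI50 marks 50% less growth.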 Activity calls are given as the source filed them. Cut-off read from the data, not from the text of the source: active = GI50 up to about 1.1 µM and inactive = higher.

Legend:
Experiment in all cases: DTP human tumour cell line panel, 48 h
[1] = system: 786-0
[2] = system: A498
[3] = system: A549
[4] = system: ACHN
[5] = system: CAKI-1
[6] = system: CCRF-CEM
[7] = system: COLO 205
[8] = system: DLD-1
[9] = system: DMS-114
[10] = system: HCT-116
[11] = system: HCT-15
[12] = system: HL-60
[13] = system: HOP-62
[14] = system: HOP-92
[15] = system: HT-29
[16] = system: IGROV-1
[17] = system: K562
[18] = system: KM-20L2
[19] = system: KM12
[20] = system: LOX IMVI
[21] = system: LXFL 529
[22] = system: M14
[23] = system: M19-MEL
[24] = system: MOLT-4
[25] = system: Malme-3M
[26] = system: NCI-H226
[27] = system: NCI-H23
[28] = system: NCI-H460
[29] = system: NCI-H522
[30] = system: OVCAR-3
[31] = system: OVCAR-4
[32] = system: OVCAR-5
[33] = system: OVCAR-8
[34] = system: RPMI-8226
[35] = system: SF-268
[36] = system: SF-295
[37] = system: SF-539
[38] = system: SK-MEL-28
[39] = system: SK-MEL-2
[40] = system: SK-MEL-5
[41] = system: SK-OV-3
[42] = system: SN12C
[43] = system: SNB-19
[44] = system: SNB-75
[45] = system: SNB-78
[46] = system: SR
[47] = system: SW-620
[48] = system: TK-10
[49] = system: U-251
[50] = system: UACC-257
[51] = system: UACC-62
[52] = system: UO-31
[53] = system: DMS-273
[54] = system: EKVX
[55] = system: HCC 2998
[56] = system: HOP-18
[57] = system: RXF 393
[58] = system: MCF7
[59] = system: NCI/ADR-RES

## CSc1nc2c(c(O)c(C)c(=O)n2C2OCC(OC(C)=O)C(OC(C)=O)C2OC(C)=O)c(=O)n1C (stereo not drawn)
[1]
  GI50: > 100 µM (inactive)
[2]
  GI50: > 100 µM (inactive)
[3]
  GI50: > 100 µM (inactive)
[4]
  GI50: > 100 µM (inactive)
[5]
  GI50: > 100 µM (inactive)
[6]
  GI50: > 100 µM (inactive)
[7]
  GI50: > 100 µM (inactive)
[8]
  GI50: > 100 µM (inactive)
[9]
  GI50: > 100 µM (inactive)
[10]
  GI50: > 100 µM (inactive)
[11]
  GI50: > 100 µM
[12]
  GI50: > 100 µM (inactive)
[13]
  GI50: > 100 µM (inactive)
[14]
  GI50: > 100 µM (inactive)
[15]
  GI50: > 100 µM (inactive)
[16]
  GI50: > 100 µM (inactive)
[17]
  GI50: > 100 µM (inactive)
[18]
  GI50: > 100 µM (inactive)
[19]
  GI50: > 100 µM (inactive)
[20]
  GI50: > 100 µM (inactive)
[21]
  GI50: > 100 µM (inactive)
[22]
  GI50: > 100 µM (inactive)
[23]
  GI50: > 100 µM (inactive)
[24]
  GI50: > 100 µM (inactive)
[25]
  GI50: > 100 µM (inactive)
[26]
  GI50: > 100 µM (inactive)
[27]
  GI50: > 100 µM (inactive)
[28]
  GI50: > 100 µM (inactive)
[29]
  GI50: > 100 µM (inactive)
[30]
  GI50: > 100 µM (inactive)
[31]
  GI50: > 100 µM (inactive)
[32]
  GI50: > 100 µM (inactive)
[33]
  GI50: > 100 µM (inactive)
[34]
  GI50: > 100 µM (inactive)
[35]
  GI50: > 100 µM (inactive)
[36]
  GI50: > 100 µM (inactive)
[37]
  GI50: > 100 µM (inactive)
[38]
  GI50: > 100 µM (inactive)
[39]
  GI50: > 100 µM (inactive)
[40]
  GI50: > 100 µM (inactive)
[41]
  GI50: > 100 µM (inactive)
[42]
  GI50: > 100 µM (inactive)
[43]
  GI50: > 100 µM (inactive)
[44]
  GI50: > 100 µM (inactive)
[45]
  GI50: > 100 µM (inactive)
[46]
  GI50: > 100 µM (inactive)
[47]
  GI50: > 100 µM (inactive)
[48]
  GI50: > 100 µM (inactive)
[49]
  GI50: > 100 µM (inactive)
[50]
  GI50: > 100 µM (inactive)
[51]
  GI50: > 100 µM (inactive)
[52]
  GI50: > 100 µM (inactive)

## COc1cc2c3c(c1OC)-c1ccccc1C(C(OC(C)=O)c1ccccc1)C3N(C)CC2 (stereo not drawn)
[1]
  GI50: 74.5 µM (inactive)
[2]
  GI50: 31.7 µM (inactive)
[3]
  GI50: 32.8 µM (inactive)
[4]
  GI50: 14.8 µM (inactive)
[5]
  GI50: 63 µM (inactive)
[6]
  GI50: 25.1 µM (inactive)
[7]
  GI50: 30.3 µM (inactive)
[8]
  GI50: 5.97 µM (inactive)
[9]
  GI50: 28.4 µM (inactive)
[53]
  GI50: 19.3 µM (inactive)
[54]
  GI50: > 100 µM (inactive)
[55]
  GI50: 6.81 µM (inactive)
[10]
  GI50: 34.5 µM (inactive)
[11]
  GI50: 27.7 µM
[12]
  GI50: 5.4 µM (inactive)
[56]
  GI50: > 100 µM (inactive)
[14]
  GI50: 21 µM (inactive)
[15]
  GI50: 38.3 µM (inactive)
[16]
  GI50: > 100 µM (inactive)
[17]
  GI50: > 10 µM (inactive)
[18]
  GI50: 27.1 µM (inactive)
[19]
  GI50: 25.7 µM (inactive)
[20]
  GI50: 44.9 µM (inactive)
[21]
  GI50: 19.7 µM (inactive)
[22]
  GI50: 51.2 µM (inactive)
[23]
  GI50: 28.8 µM (inactive)
[24]
  GI50: 7.59 µM (inactive)
[25]
  GI50: 33.2 µM (inactive)
[26]
  GI50: 47.2 µM (inactive)
[27]
  GI50: 38.7 µM (inactive)
[28]
  GI50: 30.5 µM (inactive)
[29]
  GI50: 49.2 µM (inactive)
[30]
  GI50: 43.4 µM (inactive)
[31]
  GI50: 9.16 µM (inactive)
[32]
  GI50: > 100 µM (inactive)
[33]
  GI50: 34.8 µM (inactive)
[34]
  GI50: 5.55 µM (inactive)
[57]
  GI50: 70.6 µM (inactive)
[35]
  GI50: 93.8 µM (inactive)
[36]
  GI50: > 100 µM (inactive)
[37]
  GI50: > 100 µM (inactive)
[38]
  GI50: 31.8 µM (inactive)
[39]
  GI50: 17.2 µM (inactive)
[40]
  GI50: 18.1 µM (inactive)
[41]
  GI50: > 100 µM (inactive)
[42]
  GI50: 34.7 µM (inactive)
[43]
  GI50: 48.4 µM (inactive)
[44]
  GI50: 31.9 µM (inactive)
[45]
  GI50: 32.7 µM (inactive)
[47]
  GI50: 65.3 µM (inactive)
[48]
  GI50: > 100 µM (inactive)
[49]
  GI50: 34 µM (inactive)
[50]
  GI50: 58.5 µM (inactive)
[51]
  GI50: 34 µM (inactive)
[52]
  GI50: 57.1 µM (inactive)

## CSc1cc(=O)n2c3ccccc3c3ccnc1c32
[2]
  GI50: > 91.4 µM (inactive)
[3]
  GI50: > 100 µM (inactive)
[6]
  GI50: > 100 µM (inactive)
[7]
  GI50: > 100 µM (inactive)
[8]
  GI50: 49.7 µM (inactive)
[9]
  GI50: > 100 µM (inactive)
[53]
  GI50: 79.6 µM (inactive)
[54]
  GI50: 24.4 µM (inactive)
[55]
  GI50: > 100 µM (inactive)
[10]
  GI50: > 100 µM (inactive)
[11]
  GI50: 39.7 µM
[12]
  GI50: > 100 µM (inactive)
[13]
  GI50: 35.5 µM (inactive)
[14]
  GI50: 65.3 µM (inactive)
[15]
  GI50: > 100 µM (inactive)
[16]
  GI50: 25.7 µM (inactive)
[17]
  GI50: > 100 µM (inactive)
[18]
  GI50: > 61.8 µM (inactive)
[19]
  GI50: > 82.2 µM (inactive)
[20]
  GI50: > 100 µM (inactive)
[23]
  GI50: > 100 µM (inactive)
[58]
  GI50: 34.6 µM (inactive)
[24]
  GI50: > 100 µM (inactive)
[25]
  GI50: > 86.7 µM (inactive)
[26]
  GI50: 14.2 µM (inactive)
[27]
  GI50: > 100 µM (inactive)
[28]
  GI50: 57 µM (inactive)
[29]
  GI50: > 81.8 µM (inactive)
[59]
  GI50: 73.8 µM (inactive)
[30]
  GI50: > 100 µM (inactive)
[31]
  GI50: > 100 µM (inactive)
[32]
  GI50: 97.1 µM (inactive)
[33]
  GI50: > 67.9 µM (inactive)
[34]
  GI50: > 90.8 µM (inactive)
[57]
  GI50: > 49.2 µM (inactive)
[35]
  GI50: > 49.9 µM (inactive)
[36]
  GI50: > 65.2 µM (inactive)
[37]
  GI50: > 50 µM (inactive)
[38]
  GI50: > 100 µM (inactive)
[39]
  GI50: > 100 µM (inactive)
[40]
  GI50: 43.4 µM (inactive)
[41]
  GI50: 25.6 µM (inactive)
[42]
  GI50: > 100 µM (inactive)
[43]
  GI50: > 64.3 µM (inactive)
[44]
  GI50: > 69.3 µM (inactive)
[45]
  GI50: > 70.8 µM (inactive)
[47]
  GI50: > 100 µM (inactive)
[49]
  GI50: > 55.6 µM (inactive)
[50]
  GI50: > 54.5 µM (inactive)
[51]
  GI50: 41.4 µM (inactive)
[52]
  GI50: 45.6 µM (inactive)
